Source: ChEMBL document CHEMBL5053550, “LipE guided discovery of isopropylphenyl pyridazines as pantothenate kinase modulators” (Bioorg Med Chem, 2021)
Converted amounts (≈) assume the structure as drawn.

Tests used:
[1] = target: Pantothenate kinase 3 (Homo sapiens, UniProt Q9H999)
Description: Inhibition of human recombinant N-terminal His6-fusion tagged PanK3 expressed in Escherichia coli BL21 (DE3) measured after 10 mins in presence of ATP and D-[14C]-pantothenate by scintillation counting method

[2] = Protein binding in rat plasma by LCMS analysis; assay type: ADME, cell-free
[3] = Half life in […] rat microsomes; assay type: ADME, Liver, Microsome
[4] = Half life in human plasma; assay type: ADME, cell-free
[5] = Permeability of the compound by PAMPA assay; assay type: ADME; conditions: for Papp: read-out: permeability
[6] = Half life in mouse liver microsomes; assay type: ADME, Microsome; conditions: for half-life: liver microsomes
[7] = Half life in […] human microsomes; assay type: ADME, Liver, Microsome
[8] = Solubility of the compound in pH 7.4 by UV spectrometry; assay type: physicochemical; conditions: buffer
[9] = Protein binding in mouse plasma by LCMS analysis; assay type: ADME, cell-free
[10] = Protein binding in human plasma by LCMS analysis; assay type: ADME, cell-free
[11] = Permeability across apical to basolateral side in human Caco2 cells; assay type: ADME, cell-based; conditions: Caco-2, read-out: permeability

Pantothenate kinase 3, sequence (Q9H999 whole entry): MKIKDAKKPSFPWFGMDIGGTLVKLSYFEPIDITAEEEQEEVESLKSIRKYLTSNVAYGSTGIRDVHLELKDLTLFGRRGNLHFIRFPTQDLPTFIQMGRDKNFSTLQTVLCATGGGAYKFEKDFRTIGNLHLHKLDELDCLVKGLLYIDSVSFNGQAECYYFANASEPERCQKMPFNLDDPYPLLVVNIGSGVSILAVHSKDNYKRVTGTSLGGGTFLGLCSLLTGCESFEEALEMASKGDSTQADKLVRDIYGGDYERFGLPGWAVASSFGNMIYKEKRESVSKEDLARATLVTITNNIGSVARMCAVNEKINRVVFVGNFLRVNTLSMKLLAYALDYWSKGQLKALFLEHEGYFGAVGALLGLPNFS

Row | Compound | IC50 [1] | other results
1 | CC(C)c1ccc(NC(=O)N2CCN(c3cc(C#N)ccn3)CC2)cc1 | 0.23 µM | 
2 | CC(C)c1ccc(NC(=O)N2CCN(c3ccc(C#N)cn3)CC2)cc1 | 0.64 µM | 
3 | CC(C)c1ccc(NC(=O)N2CCN(c3cnc(C#N)nc3)CC2)cc1 | 0.17 µM | 
4 | CCCCc1ccc(NC(=O)N2CCN(c3ccc(C#N)cn3)CC2)c(C)c1 | 1.2 µM | 
5 | CC(C)c1ccc(NC(=O)N2CCN(c3ccc(F)cc3)CC2)cc1 | 1.8 µM | 
6 | CC(C)c1ccc(NC(=O)N2CCN(c3ccc(C#N)cc3)CC2)cc1 | 0.58 µM | 
7 | CC(C)c1ccc(NC(=O)N2CCN(c3ccc(N)cn3)CC2)cc1 | > 10 µM | 
8 | CC(C)c1ccc(NC(=O)N2CCN(c3nccc(C#N)n3)CC2)cc1 | 0.14 µM | 
9 | CC(C)c1ccc(NC(=O)N2CCN(c3ccccn3)CC2)cc1 | 5.3 µM | 
10 | CC(C)(C)c1ccc(NC(=O)N2CCN(c3ccc(C#N)cn3)CC2)cc1 |  | PPB [2]: 98%; half-life [3]: 31 min; half-life [4]: > 48 h; permeability [5]: 1232 10^-6 cm/s; half-life [6]: 16 min; half-life [7]: 8 min
11 | CC(C)c1ccc(NC(=O)N2CCN(c3ccc(Br)cn3)CC2)cc1 | 0.22 µM | 
12 | CC(C)c1ccc(NC(=O)N2CCN(c3cccc(Cl)c3)CC2)cc1 | 1.7 µM | 
13 | Cc1ccc(N2CCN(C(=O)Nc3ccc(C(C)C)cc3)CC2)nc1 | 2.3 µM | 
14 | CC(C)c1ccc(OC(=O)N2CCN(c3ccc(C#N)cn3)CC2)cc1 | 0.42 µM | 
15 | CC(C)c1ccc(C(O)C(=O)N2CCN(c3ccc(C#N)cn3)CC2)cc1 (stereo unspecified) | 0.99 µM | 
16 | CC(C)c1ccc(NC(=O)N2CCN(c3ccc(C#N)nn3)CC2)cc1 |  | PPB [2]: 89%; t1/2 [3]: 294 min; half-life [4]: > 48 h; solubility [8]: 5.5 µM (≈ 1.93 µg/mL); Papp [5]: 3160 nm/s; t1/2 ([6]; microsomes): 113 min; t1/2 [7]: 64 min; PPB [9]: 92%; PPB [10]: 92%
17 | CC(C)c1ccc(CC(=O)N2CCN(c3ccc(C#N)nn3)CC2)cc1 |  | fraction unbound ([2]; read-out: PPB): 0.09; half-life [4]: > 48 h; Papp A→B [11]: 302 nm/s; Papp [5]: 4130 nm/s; half-life [6]: 8 min; half-life [7]: 7 min; fraction unbound ([9]; read-out: PPB (converted)): 0.08; fraction unbound ([10]; read-out: PPB (converted)): 0.07
18 | CC(C)c1ccc(NC(=O)N2CCN(c3ncc(Br)cn3)CC2)cc1 | 0.16 µM | 
19 | CC(C)c1ccc(NC(=O)N2CCN(c3ccc(Cl)c(Cl)c3)CC2)cc1 | 1.4 µM | 
20 | CC(C)c1ccc(NC(=O)N2CCN(c3ccc(C(F)(F)F)cn3)CC2)cc1 | 0.77 µM | 
21 | CC(C)c1ccc(CC(=O)N2CCN(c3nccc(Cl)n3)CC2)cc1 | 0.27 µM | 
22 | CC(=O)c1ccc(N2CCN(C(=O)Nc3ccc(C(C)C)cc3)CC2)cc1 | 3.3 µM | 
23 | CC(C)c1ccc(NC(=O)N2CCN(c3ncccc3C#N)CC2)cc1 | 1.1 µM | 
24 | N#Cc1ccc(N2CCN(C(=O)Cc3ccc(C4CC4)cc3)CC2)nc1 | 0.2 µM | 
25 | CC(C)c1ccc(NC(=O)N2CCN(c3ccc(Cl)cn3)CC2)cc1 | 0.22 µM | 
26 | CC(C)Cc1ccc(NC(=O)N2CCN(c3ccc(C#N)cn3)CC2)cc1 | 0.49 µM | 
